According to patent publication US20130102009A1, “SIRTUIN ACTIVATORS AND ACTIVATION ASSAYS” (priority 2010, published 2013):

Columns and labels:
[1] = target: T1, SIRT1 (Homo sapiens, UniProt Q96EB6); experiment: Mass spectroscopic kinetic assay of SIRT1-catalyzed deacetylation of 20mer peptides; assay type: biochemical; settings: substrate TAMRA-peptide
T1 sequence (Q96EB6 1-747): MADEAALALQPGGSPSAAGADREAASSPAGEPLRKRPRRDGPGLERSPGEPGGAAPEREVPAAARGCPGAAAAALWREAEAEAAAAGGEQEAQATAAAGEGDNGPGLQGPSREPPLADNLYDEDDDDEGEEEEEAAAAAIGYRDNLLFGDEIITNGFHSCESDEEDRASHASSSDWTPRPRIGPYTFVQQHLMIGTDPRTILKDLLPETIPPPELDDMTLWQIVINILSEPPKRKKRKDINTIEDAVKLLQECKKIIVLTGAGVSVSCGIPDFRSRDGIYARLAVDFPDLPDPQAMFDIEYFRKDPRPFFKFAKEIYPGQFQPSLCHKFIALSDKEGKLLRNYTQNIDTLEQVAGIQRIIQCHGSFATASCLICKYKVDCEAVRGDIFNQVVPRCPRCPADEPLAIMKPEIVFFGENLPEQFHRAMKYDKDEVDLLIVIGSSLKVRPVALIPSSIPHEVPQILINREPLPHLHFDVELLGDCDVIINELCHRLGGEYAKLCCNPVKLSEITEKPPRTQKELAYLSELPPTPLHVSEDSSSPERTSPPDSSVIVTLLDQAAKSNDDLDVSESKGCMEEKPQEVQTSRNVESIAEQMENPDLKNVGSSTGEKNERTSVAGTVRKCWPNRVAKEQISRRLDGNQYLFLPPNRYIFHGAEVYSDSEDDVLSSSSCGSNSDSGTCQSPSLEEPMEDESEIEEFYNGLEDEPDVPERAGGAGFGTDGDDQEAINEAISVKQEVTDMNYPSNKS
Description: Bovine glutamate dehydrogenase (GDH), α-ketoglutarate, NADH and NAD^+ were from Sigma Chemical Company. […] The nicotinamidase PNC1 was prepared as described by Denu and colleagues (Smith et al. (2009) Anal Biochem 394, 101-109). Our collection of approximately 5,000 SIRT1 activators was screened using the BioTrove mass spectrometry system, as previously described (Milne et al. (2007) Nature 450, 712-716). […] Compounds were present at 10 μM, and the assays were conducted in a pH 7.4 buffer containing 150 mM Tris, 5 mM DTT, 1% DMSO, and 0.025% BSA. To determine the interaction of STACs with SIRT1 two kinetic methods were employed. […] (2007) Nature 450, 712-716). The other, used with peptides of general structure […], used a continuous, enzyme-coupled method reported previously (Smith et al. (2009) Anal Biochem 394, 101-109), in which the SRT1 product nicotinamide is first converted into nicotinic acid and ammonia by the action of PNC1, and the ammonia then used by GDH to convert α-ketoglutarate into glutamate. This reaction occurs with oxidation of NADH to NAD^+ which is accompanied by a change in absorbance at 340 nm (Δε340=-6,200 M^-1 cm^-1). Activator titrations were plotted as relative velocity (i.e., the ratio of vx, velocity in the presence of activator X, to vo, velocity in the absence of activator) vs. [X]o, initial concentration of activator, and fit by nonlinear least-squares to the mechanism-independent expression for enzyme activation of […] the maximum relative velocity (i.e., vx/vo at infinite [X]o) and EC50 is the activator concentration at which vx/vo=(RVmax-1)/2. EC50 is a function of the kinetic mechanisms of both catalysis and activation, and the concentrations of substrates.

[2] = target: T1, SIRT1; experiment: Mass spectrometry based SIRT1 activation assay (TAMRA/5TMR-labeled 20mer peptide); assay type: biochemical; settings: for Emax: 25 min, percent maximum fold activation of SIRT1, read-out: % FOLD ACT.; for EC1.5 uM: concentration that results in 150% activation of SIRT1
Source text: A mass spectrometry based assay was used to identify modulators of SIRTI activity. The mass spectrometry based assay utilizes a peptide having 20 amino acid residues as follows: Ac-EE-K(biotin)-GQSTSSHSK(Ac)NleSTEG-K(5TMR)-EE-NH2 (SEQ ID NO: 1) wherein K(Ac) is an acetylated lysine residue and Nle is a norleucine. The peptide is labeled with the fluorophore 5TMR (excitation 540 nrnIemission 580 nm) at the C-terminus. The sequence of the peptide substrate is based on p53 with several modifications. In addition, the methionine residue naturally present in the sequence was replaced with the norleucine because the methionine may be susceptible to oxidation during synthesis and purification.
The mass spectrometry assay is conducted as follows: 0.5 J-1M peptide substrate and 120 μM βNAD^+ is incubated with 10 nM SIRT1 for 25 minutes at 25° C. in a reaction buffer (50 mM Tris-acetate pH 8, 137 mM NaCl, 2.7 mM KCl, 1 mM MgClz, 5 mM DTT, 0.05% BSA). Test compounds may be added to the reaction as described above. The SirTI gene is cloned into a T7-promoter containing vector and transformed into BL21 (DE3). After the 25 minute incubation with SIRT1, 10 μL of 10% formic acid is added to stop the reaction. Reactions are sealed and frozen for later mass spec analysis. Determination of the mass of the substrate peptide allows for precise determination of the degree of acetylation (i.e. starting material) as compared to deacetylated peptide (product).
A control for inhibition of sirtuin activity is conducted by adding 1 μL of 500 mM nicotinamide as a negative control at the start of the reaction (e.g., permits determination of maximum sirtuin inhibition). A control for activation of sirtuin activity is conducted using 10 nM of sirtuin protein, with 1 μL of DMSO in place of compound, to determine the amount of deacetylation of the substrate at a given timepoint within the linear range of the assay. This timepoint is the same as that used for test compounds and, within the linear range, the endpoint represents a change in velocity.
For the above assay, SIRTI protein was expressed and purified as follows. The SirT1 gene was cloned into a T7-promoter containing vector and transformed into BL21(DE3). The protein was expressed by induction with 1 mM IPTG as an N-terminal His-tag fusion protein at 18° C. overnight and harvested at 30,000×g. Cells were lysed with lysozyme in lysis buffer (50 mM Tris-HCl, 2 mM Tris[2-carboxyethyl]phosphine (TCEP), 10 μM ZnCl2, 200 mM NaCl) and further treated with sonication for 10 min for complete lysis. The protein was purified over a Ni-NTA column (Amersham) and fractions containing pure protein were pooled, concentrated and run over a sizing column (Sephadex S200 26/60 global). The peak containing soluble protein was collected and run on an Ion-exchange column (MonoQ). Gradient elution (200 mM-500 mM NaCl) yielded pure 20 protein. This protein was concentrated and dialyzed against dialysis buffer (20 mM TrisHCl, 2 mM TCEP) overnight. The protein was aliquoted and frozen at −80° C. until further use.
Sirtuin modulating compounds that activated SIRT1 were identified using the assay described above and are shown below in Table 4. The EC1.5 values represent the concentration of test compounds that result in 150% activation of SIRT1. The EC1.5 values for the activating compounds are represented by A (EC1.5≦1 μM), B (EC1.5>1 μM). The percent maximum fold activation is represented by A (Fold activation ≧200%) or B (Fold Activation <200%).

[3] = target: TAMRA-peptide; experiment: ITC binding of STACs to TAMRA-peptide; settings: 26° C., pH 7.3, read-out: Kd for the binding of activator to TAMRA-peptide
Description: ITC experiments were performed using either a VP-ITC system or iTC200 system (MicroCal) at 26° C. in a buffer composed of 137 mM NaCl, 2.7 mM KCl, 1 mM MgCl2, 2 mM TCEP, 5% (v/v) glycerol and 50 mM HEPES-NaOH, pH 7.3. SIRT1(183-664) was purified and dialyzed against the buffer, centrifuged, and degassed before the experiment. The peptide and compounds were dissolved in the final dialysis buffer and their pH values were adjusted to match that of the protein solution. […] To characterize this interaction using the iTC200 system, 1 mM TAMRA-peptide was injected in 20 aliquots of 2 μL, (except the first injection, which was 0.5 μL) into a 0.202 mL sample cell containing 100 μM STAC. For STACs with poor solubility, the concentrations were adjusted accordingly. […] In all cases, data was corrected for the heat of dilution and fitted using a nonlinear least-squares routine using a single-site binding model with Origin for ITC v7.0383 (Microcal) with the stoichiometry (n), the enthalpy of the reaction (ΔH) and the association constant (Ka) calculated.

[4] = target: T2, SIRT1(183-664) (Homo sapiens, UniProt Q96EB6); experiment: ITC binding of STACs to SIRT1(183-664); settings: dissociation constant of SRT:SIRT1 complex, read-out: Kx (μM), ITC
T2 construct: the truncated version used for biophysical studies SIRT1(183-664); made in house
T2 sequence (Q96EB6 183-664): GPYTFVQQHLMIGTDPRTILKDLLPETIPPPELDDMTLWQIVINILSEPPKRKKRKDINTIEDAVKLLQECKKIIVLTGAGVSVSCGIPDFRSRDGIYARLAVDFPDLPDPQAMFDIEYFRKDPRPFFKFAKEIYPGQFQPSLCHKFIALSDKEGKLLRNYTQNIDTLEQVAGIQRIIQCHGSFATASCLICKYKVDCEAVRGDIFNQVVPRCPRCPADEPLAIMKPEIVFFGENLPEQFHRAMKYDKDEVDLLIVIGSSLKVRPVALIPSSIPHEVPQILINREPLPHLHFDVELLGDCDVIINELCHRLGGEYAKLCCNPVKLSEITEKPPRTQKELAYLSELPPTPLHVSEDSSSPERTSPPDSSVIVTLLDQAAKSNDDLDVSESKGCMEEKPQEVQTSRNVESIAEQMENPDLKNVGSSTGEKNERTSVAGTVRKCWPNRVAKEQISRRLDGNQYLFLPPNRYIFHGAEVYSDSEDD
Description: All peptides were prepared by BioPeptide (San Diego, Calif.) and shown to be at least 95% pure by analytical HPLC analysis. Bovine glutamate dehydrogenase (GDH), α-ketoglutarate, NADH and NAD^+ were from Sigma Chemical Company. Full-length, human SIRT1 and the truncated version used for biophysical studies SIRT1(183-664) were prepared as described previously, and shown to have equivalent kinetic properties (Milne et al. (2007) Nature 450, 712-716). The nicotinamidase PNC1 was prepared as described by Denu and colleagues (Smith et al. (2009) Anal Biochem 394, 101-109). ITC experiments were performed using either a VP-ITC system or iTC200 system (MicroCal) at 26° C. in a buffer composed of 137 mM NaCl, 2.7 mM KCl, 1 mM MgCl2, 2 mM TCEP, 5% (v/v) glycerol and 50 mM HEPES-NaOH, pH 7.3. SIRT1(183-664) was purified and dialyzed against the buffer, centrifuged, and degassed before the experiment. The peptide and compounds were dissolved in the final dialysis buffer and their pH values were adjusted to match that of the protein solution. […] To characterize this interaction using the iTC200 system, 1 mM TAMRA-peptide was injected in 20 aliquots of 2 μL, (except the first injection, which was 0.5 μL) into a 0.202 mL sample cell containing 100 μM STAC. For STACs with poor solubility, the concentrations were adjusted accordingly. […] To characterize the interaction of a STAC with SIRT1(183-664) on the VP-ITC system, 100 μM enzyme was injected in 35 aliquots of 8 μL, (except the first injection, which was 2 μL) into a 1.47 mL sample cell containing 10 μM STAC. […] In all cases, data was corrected for the heat of dilution and fitted using a nonlinear least-squares routine using a single-site binding model with Origin for ITC v7.0383 (Microcal) with the stoichiometry (n), the enthalpy of the reaction (ΔH) and the association constant (Ka) calculated.

SMILES	EC1.5 for activation of SIRT1 ([1]; concentration for 1.5-fold activation)	EC50 ([1]; fit to eq (1), read-out: EC50 (Kx) for activation of SIRT1-catalyzed deacetylation of TAMRA-peptide)	Emax [2]	EC1.5 uM [2]	Kd [3]	Kd [4]
O=C(Nc1ccccc1-c1nc2cc(CCC3CCNCC3)cnc2s1)c1cccc(C2CCNC2)c1 (centres unmarked) [Compound 7]	0.1 µM	500 nM	≥ 200%	A (EC1.5≦1 μM)	36000 nM	
CCCNc1cc(-c2nc3c(NC(=O)c4ccc(CN5CCNCC5)cc4)cccc3[nH]2)ccn1 [Compound 13]			≥ 200%	A (EC1.5≦1 μM)		0.32 µM
